Results taken from patent US6355799B1, “Substituted benzene compounds, process for their preparation, and herbicidal and defoliant compositions containing them” (ISK Americas Incorporated, priority 1997, dated 2002).

Columns and labels:
Format in all cases: in vivo
[1] = tested on: barnyardgrass (Echinochloa crus-galli, ECHCG); test: Post-emerge test, greenhouse herbicide activity screening; settings: post-emerge; for phytotoxicity rating ECHCG: 14 days after application, rating scale 0-100; for Post-emerge Herbicidal Activity ECHCG: phytotoxicity rating 0-100 at 14 days after application
Method in brief: (§1)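 Each test used a mechanized track sprayer delivering 187 l/ha of acetone solution at 15–1000 g ai/ha. Post-emerge foliage at 2–3 leaves was treated with added 0.25% v/v non-ionic surfactant and bottom-watered only. Injury was assessed on day 14, where 100 means total kill.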

[2] = tested on: green foxtail (Setaria viridis, SETVI); test: as above; settings: post-emerge; for phytotoxicity rating SETVI: 14 days after application, rating scale 0-100; for Post-emerge Herbicidal Activity SETVI: phytotoxicity rating 0-100 at 14 days after application
Method in brief: as §1

[3] = tested on: velvetleaf (Abutilon theophrasti, ABUTH); test: as above; settings: post-emerge; for phytotoxicity rating ABUTH: 14 days after application, rating scale 0-100; for Post-emerge Herbicidal Activity ABUTH: phytotoxicity rating 0-100 at 14 days after application
Method in brief: as §1

[4] = tested on: lambsquarters (Chenopodium album, CHEAL); test: as above; settings: post-emerge; for phytotoxicity rating CHEAL: 14 days after application, rating scale 0-100; for Post-emerge Herbicidal Activity CHEAL: phytotoxicity rating 0-100 at 14 days after application
Method in brief: as §1

[5] = tested on: ivyleaf morningglory (Ipomoea hederacea, IPOHE); test: as above; settings: post-emerge; for phytotoxicity rating IPOHE: 14 days after application, rating scale 0-100; for Post-emerge Herbicidal Activity IPOHE: phytotoxicity rating 0-100 at 14 days after application
Method in brief: as §1

[6] = tested on: sicklepod (Cassia obtusifolia, CASOB); test: as above; settings: post-emerge; for phytotoxicity rating CASOB: 14 days after application, rating scale 0-100; for Post-emerge Herbicidal Activity CASOB: phytotoxicity rating 0-100 at 14 days after application
Method in brief: as §1

[7] = tested on: large crabgrass (Digitaria sanguinalis, DIGSA); test: as above; settings: post-emerge; for phytotoxicity rating DIGSA: 14 days after application, rating scale 0-100; for Post-emerge Herbicidal Activity DIGSA: phytotoxicity rating 0-100 at 14 days after application
Method in brief: as §1

[8] = tested on: redroot pigweed (Amaranthus retroflexus, AMARE); test: as above; settings: post-emerge; for phytotoxicity rating AMARE: 14 days after application; for Post-emerge Herbicidal Activity AMARE: phytotoxicity rating 0-100 at 14 days after application
Method in brief: as §1

[9] = tested on: upland rice (Oryza sp., var. Tebonnet, RICE); test: Pre-emerge test, crop safety
Method in brief: (§2)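 Compounds in acetone were track-sprayed at 15-1000 g ai/ha (187 l/ha) on sandy loam pots: pre-emerge one day after seeding, post-emerge at 2-3 leaf stage with 0.25% v/v non-ionic surfactant. Phytotoxicity was rated 14 days later on a 0 (no damage) to 100 (complete death) scale.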

[10] = tested on: field corn (Zea mays L., var. Dekalb 535, CORN); test: Pre-emerge test, crop safety
Method in brief: as §2

[11] = tested on: redroot pigweed (Amaranthus retroflexus, AMARE); test: Pre-emerge test, greenhouse herbicide activity screening
Method in brief: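 Compounds in acetone were track-sprayed at 187 l/ha, 15–1000 g ai/ha, onto sandy loam pots. Pre-emerge seeds were sown one day before spraying, with surface watering afterwards. Post-emerge plants were at the 2–3 leaf stage and sprayed with 0.25% v/v non-ionic surfactant. Injury was rated 0–100 at 14 days.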

[12] = tested on: barnyardgrass (Echinochloa crus-galli, ECHCG); test: as above
Method in brief: (§3)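 Visual ratings on a 0-100 scale (0 no damage, 100 all plants dead) were taken at 14 days after treatment. Rates of 15-1000 g ai/ha in acetone, 187 l/ha, were sprayed onto soil one day after planting (pre-emerge) or onto 2-3 leaf plants with 0.25% v/v surfactant (post-emerge).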

[13] = tested on: green foxtail (Setaria viridis, SETVI); test: as above
Method in brief: as §3

[14] = tested on: velvetleaf (Abutilon theophrasti, ABUTH); test: as above
Method in brief: as §3

[15] = tested on: lambsquarters (Chenopodium album, CHEAL); test: as above
Method in brief: as §3

[16] = tested on: johnsongrass (Sorghum halepense, SORHA); test: as above
Method in brief: as §3

[17] = tested on: ivyleaf morningglory (Ipomoea hederacea, IPOHE); test: as above
Method in brief: as §3

[18] = tested on: sicklepod (Cassia obtusifolia, CASOB); test: as above
Method in brief: as §3

[19] = tested on: large crabgrass (Digitaria sanguinalis, DIGSA); test: as above
Method in brief: as §3

[20] = tested on: upland rice (Oryza sp., var. Tebonnet, RICE); test: Post-emerge test, crop safety; settings: post-emerge; for phytotoxicity rating RICE (crop damage): 14 days after application, rating scale 0-100; for Post-emerge Herbicidal Activity RICE: crop damage rating 0-100 at 14 days after application
Method in brief: as §3

[21] = tested on: field corn (Zea mays L., var. Dekalb 535, CORN); test: Post-emerge test, crop safety; settings: post-emerge; for phytotoxicity rating CORN (crop damage): 14 days after application, rating scale 0-100; for Post-emerge Herbicidal Activity CORN: crop damage rating 0-100 at 14 days after application
Method in brief: as §3

[22] = 63 g ai/ha, rating scale 0-100 (0 no damage, 100 complete death)
[23] = 250 g ai/ha, rating scale 0-100
[24] = 63 g ai/ha, crop damage rating 0-100, 14 days after application
[25] = 250 g ai/ha, crop damage rating 0-100, 14 days after application
[26] = 63 g ai/ha, phytotoxicity rating 0-100, 14 days after application
[27] = 250 g ai/ha, phytotoxicity rating 0-100, 14 days after application
[28] = crop damage, pre-emerge, rate 63 g ai/ha, phytotoxicity rating 0-100 at 14 days after application
[29] = crop damage, pre-emerge, rate 250 g ai/ha, phytotoxicity rating 0-100 at 14 days after application
[30] = pre-emerge, rate 63 g ai/ha, phytotoxicity rating 0-100 at 14 days after application
[31] = pre-emerge, rate 250 g ai/ha, phytotoxicity rating 0-100 at 14 days after application

COc1c(Cl)cc(F)c(-n2c(=O)cc(C(F)(F)F)n(C)c2=O)c1NC(=O)OC(c1ccccc1)C1CC1 (stereo not drawn) [4-46]
80: phytotoxicity rating CASOB ([6]; 63 g ai/ha) | Pre-emerge Herbicidal Activity AMARE [11, 26] | phytotoxicity rating CORN (crop damage) ([21]; 250 g ai/ha)
10: phytotoxicity rating SETVI ([2]; 63 g ai/ha) | phytotoxicity rating SETVI ([2]; 250 g ai/ha) | Pre-emerge Herbicidal Activity RICE [9, 24] | Pre-emerge Herbicidal Activity IPOHE [17, 26] | phytotoxicity rating RICE (crop damage) ([20]; 63 g ai/ha) | phytotoxicity rating CORN (crop damage) ([21]; 63 g ai/ha)
100: phytotoxicity rating CHEAL ([4]; 250 g ai/ha) | phytotoxicity rating IPOHE ([5]; 63 g ai/ha) | phytotoxicity rating AMARE [8, 22] | phytotoxicity rating AMARE [8, 23] | Pre-emerge Herbicidal Activity AMARE [11, 27] | Pre-emerge Herbicidal Activity SETVI [13, 27] | Pre-emerge Herbicidal Activity ABUTH [14, 27] | Pre-emerge Herbicidal Activity CHEAL [15, 26] | Pre-emerge Herbicidal Activity CHEAL [15, 27]
5: Pre-emerge Herbicidal Activity CORN [10, 25]
70: Pre-emerge Herbicidal Activity DIGSA [19, 26] | phytotoxicity rating RICE (crop damage) ([20]; 250 g ai/ha)
85: Pre-emerge Herbicidal Activity IPOHE [17, 27]
40: Pre-emerge Herbicidal Activity SETVI [13, 26] | Pre-emerge Herbicidal Activity CASOB [18, 27]
60: Pre-emerge Herbicidal Activity ECHCG [12, 27] | Pre-emerge Herbicidal Activity SORHA [16, 27]
95: phytotoxicity rating ABUTH ([3]; 63 g ai/ha) | phytotoxicity rating CASOB ([6]; 250 g ai/ha) | Pre-emerge Herbicidal Activity DIGSA [19, 27]
0: phytotoxicity rating DIGSA ([7]; 63 g ai/ha) | Pre-emerge Herbicidal Activity CORN [10, 24]
50: Pre-emerge Herbicidal Activity RICE [9, 25] | Pre-emerge Herbicidal Activity ABUTH [14, 26]
30: phytotoxicity rating ECHCG ([1]; 250 g ai/ha) | Pre-emerge Herbicidal Activity CASOB [18, 26]
20: phytotoxicity rating ECHCG ([1]; 63 g ai/ha) | phytotoxicity rating DIGSA ([7]; 250 g ai/ha) | Pre-emerge Herbicidal Activity ECHCG [12, 26] | Pre-emerge Herbicidal Activity SORHA [16, 26]
90: phytotoxicity rating ABUTH ([3]; 250 g ai/ha) | phytotoxicity rating CHEAL ([4]; 63 g ai/ha) | phytotoxicity rating IPOHE ([5]; 250 g ai/ha)

COc1c(Cl)cc(F)c(-n2c(=O)cc(C(F)(F)F)n(C)c2=O)c1NC(=O)OCc1c(F)c(F)c(F)c(F)c1F [4-48]
95: phytotoxicity rating CASOB ([6]; 63 g ai/ha)
50: Pre-emerge Herbicidal Activity CORN [10, 25] | Pre-emerge Herbicidal Activity ECHCG [12, 26]
80: phytotoxicity rating ECHCG ([1]; 250 g ai/ha) | Pre-emerge Herbicidal Activity IPOHE [17, 26] | phytotoxicity rating RICE (crop damage) ([20]; 63 g ai/ha) | phytotoxicity rating RICE (crop damage) ([20]; 250 g ai/ha)
100: phytotoxicity rating ABUTH ([3]; 63 g ai/ha) | phytotoxicity rating ABUTH ([3]; 250 g ai/ha) | phytotoxicity rating CHEAL ([4]; 63 g ai/ha) | phytotoxicity rating CHEAL ([4]; 250 g ai/ha) | phytotoxicity rating IPOHE ([5]; 63 g ai/ha) | phytotoxicity rating IPOHE ([5]; 250 g ai/ha) | phytotoxicity rating CASOB ([6]; 250 g ai/ha) | phytotoxicity rating AMARE [8, 22] | phytotoxicity rating AMARE [8, 23] | Pre-emerge Herbicidal Activity AMARE [11, 26] | Pre-emerge Herbicidal Activity AMARE [11, 27] | Pre-emerge Herbicidal Activity SETVI [13, 26] | Pre-emerge Herbicidal Activity SETVI [13, 27] | Pre-emerge Herbicidal Activity ABUTH [14, 26] | Pre-emerge Herbicidal Activity ABUTH [14, 27] | Pre-emerge Herbicidal Activity CHEAL [15, 26] | Pre-emerge Herbicidal Activity CHEAL [15, 27] | Pre-emerge Herbicidal Activity IPOHE [17, 27] | Pre-emerge Herbicidal Activity CASOB [18, 27] | Pre-emerge Herbicidal Activity DIGSA [19, 26] | Pre-emerge Herbicidal Activity DIGSA [19, 27]
60: Pre-emerge Herbicidal Activity SORHA [16, 26]
40: phytotoxicity rating SETVI ([2]; 250 g ai/ha) | phytotoxicity rating DIGSA ([7]; 250 g ai/ha) | Pre-emerge Herbicidal Activity CASOB [18, 26]
30: phytotoxicity rating SETVI ([2]; 63 g ai/ha) | Pre-emerge Herbicidal Activity CORN [10, 24]
90: Pre-emerge Herbicidal Activity SORHA [16, 27] | phytotoxicity rating CORN (crop damage) ([21]; 63 g ai/ha) | phytotoxicity rating CORN (crop damage) ([21]; 250 g ai/ha)
70: Pre-emerge Herbicidal Activity RICE [9, 25] | Pre-emerge Herbicidal Activity ECHCG [12, 27]
20: phytotoxicity rating ECHCG ([1]; 63 g ai/ha) | phytotoxicity rating DIGSA ([7]; 63 g ai/ha) | Pre-emerge Herbicidal Activity RICE [9, 24]

O=C(Nc1cc(Cl)ccc1-n1c(=O)n2n(c1=S)CCCC2)c1ccc2ccccc2c1 [9-14]
85: Post-emerge Herbicidal Activity AMARE ([8]; 63 g ai/ha) | Pre-emerge Herbicidal Activity ABUTH [14, 31]
95: Post-emerge Herbicidal Activity CHEAL ([4]; 63 g ai/ha)
10: Post-emerge Herbicidal Activity ECHCG ([1]; 250 g ai/ha) | Post-emerge Herbicidal Activity SETVI ([2]; 63 g ai/ha) | Post-emerge Herbicidal Activity DIGSA ([7]; 250 g ai/ha) | Pre-emerge Herbicidal Activity RICE [9, 29] | Pre-emerge Herbicidal Activity SORHA [16, 31] | Pre-emerge Herbicidal Activity IPOHE [17, 31]
90: Post-emerge Herbicidal Activity IPOHE ([5]; 250 g ai/ha)
65: Pre-emerge Herbicidal Activity AMARE [11, 31]
30: Pre-emerge Herbicidal Activity SETVI [13, 31] | Pre-emerge Herbicidal Activity DIGSA [19, 31]
80: Post-emerge Herbicidal Activity IPOHE ([5]; 63 g ai/ha) | Pre-emerge Herbicidal Activity CHEAL [15, 30]
100: Post-emerge Herbicidal Activity ABUTH ([3]; 63 g ai/ha) | Post-emerge Herbicidal Activity ABUTH ([3]; 250 g ai/ha) | Post-emerge Herbicidal Activity CHEAL ([4]; 250 g ai/ha) | Post-emerge Herbicidal Activity AMARE ([8]; 250 g ai/ha) | Pre-emerge Herbicidal Activity CHEAL [15, 31]
20: Post-emerge Herbicidal Activity SETVI ([2]; 250 g ai/ha) | Pre-emerge Herbicidal Activity ABUTH [14, 30]
0: Post-emerge Herbicidal Activity ECHCG ([1]; 63 g ai/ha) | Post-emerge Herbicidal Activity DIGSA ([7]; 63 g ai/ha) | Pre-emerge Herbicidal Activity RICE [9, 28] | Pre-emerge Herbicidal Activity CORN [10, 28] | Pre-emerge Herbicidal Activity CORN [10, 29] | Pre-emerge Herbicidal Activity ECHCG [12, 30] | Pre-emerge Herbicidal Activity SETVI [13, 30] | Pre-emerge Herbicidal Activity SORHA [16, 30] | Pre-emerge Herbicidal Activity IPOHE [17, 30] | Pre-emerge Herbicidal Activity CASOB [18, 30] | Pre-emerge Herbicidal Activity CASOB [18, 31] | Pre-emerge Herbicidal Activity DIGSA [19, 30] | Post-emerge Herbicidal Activity RICE ([20]; 63 g ai/ha)
15: Post-emerge Herbicidal Activity CORN ([21]; 63 g ai/ha)
50: Post-emerge Herbicidal Activity CORN ([21]; 250 g ai/ha)
40: Post-emerge Herbicidal Activity CASOB ([6]; 63 g ai/ha) | Post-emerge Herbicidal Activity CASOB ([6]; 250 g ai/ha) | Pre-emerge Herbicidal Activity AMARE [11, 30] | Pre-emerge Herbicidal Activity ECHCG [12, 31] | Post-emerge Herbicidal Activity RICE ([20]; 250 g ai/ha)
